Assay results reported in US11696901B2 (SHAOGUAN UNIVERSITY, priority 2020, dated 2023).
Where “and” joins values, the source holds several entries; their conditions need not be identical. Identical values can stand only once.

Legend:
[1] = Precipitation rate after centrifugation; assay type: physicochemical; conditions: comparative experiment; curcumin concentration 6.0/5.8/4.8/4.0 mg/mL, pH 7/7/7/6 in row order; beverage = A3B2C2D2
Procedure: The weight of the centrifuge tube and the total weight of the sample and the centrifuge tube were measured, and then the sample was centrifuged at 4,000 r/min for 15 min. The supernatant was discarded and the total weight of the centrifuge tube and the precipitate was accurately measured.
The precipitation rate was calculated as follows: precipitation rate=precipitate weight/sample weightx 100%.

[2] = Optimal concentration of stabilizer Zn^2+, absorbance of curcumin solution at 425 nm; assay type: physicochemical; conditions: after 60 h, room temperature
Procedure: A series of Zn^2+ stock solutions were prepared as follows. 0.03 g, 0.06 g, 0.09 g, 0.12 g, 0.15 g and 0.18 g of zinc sulfate were dissolved with 100 mL of distilled water and stirred uniformly to prepare a series of zinc sulfate stock solutions with a concentration of 0.3 g/L, 0.6 g/L, 0.9 g/L, 1.2 g/L, 1.5 g/L and 1.8 g/L, respectively, which were stored for use.
The 7 vessels were placed at room temperature and measured for the absorbance at 425 nm using a microplate reader every other 12 h, where each measurement was performed in triplicate.

[3] = Stability of absorbance (A/A0 after centrifugation); assay type: physicochemical; conditions: comparative experiment; curcumin concentration 6.0/5.8/4.8/4.0 mg/mL, pH 7/7/7/6 in row order; beverage = A3B2C2D2
Procedure: The absorbance (A0) of the sample before the centrifugation and the absorbance (A) of the sample after the centrifugation were measured at the maximum absorption wavelength, and the stability of absorbance was represented by A/A0.

[4] = DPPH⋅ scavenging activity; assay type: biochemical; conditions: positive control
Procedure: Moreover, it can also be acidified with citric acid to pH 4.6 and then pasteurized at 80° C. for 20 min; or filtered with a 0.22 μm organic filter for cold sterilization. The unsterilized beverage was used as control. The scavenging capacity toward DPPH free radical was used as an index to evaluate the sterilization effect, where the ascorbic acid (Vc) was used as positive control.
(§1) The beverage samples were prepared as follows.
2 mg, 4 mg, 6 mg, 8 mg and 10 mg of Vc were diluted with distilled water to 100 mL, respectively, that was, the final concentrations of the Vc were 20 μg/mL, 40 μg/mL, 60 μg/mL, 80 μg/mL and 100 μg/mL, respectively.
The reaction mixture was reacted in dark for 30 min, and then measured at 517 nm for the absorbance (A1), where a well containing the sample and 100 μL of absolute ethanol was used as control; a well containing 100 μL of distilled water and 100 μL of the DPPH solution was used as blank group; and Vc was used as positive control.
(§2) The scavenging rate was calculated as follows: scavenging rate %=[1−(A1−A2)/A0]×100%,

[5] = ABTS^+⋅ scavenging activity; assay type: biochemical; conditions: positive control
Procedure: as §1
2 mg, 4 mg, 6 mg, 8 mg and 10 mg of Vc were diluted with distilled water to 100 mL, respectively, that was, the final concentrations of the Vc were 20 μg/mL, 40 μg/mL, 60 μg/mL, 80 μg/mL and […], respectively.
5 mL of a K2S2O8 solution (2.6 mmol/L) and 10 mL of an […] (7.4 mmol/L) were mixed uniformly and reacted in dark for 12 h. The ABTS^+⋅ solution was diluted with phosphate buffer solution (pH=6.6) to an absorbance of 0.70±0.02 to produce a working solution. […] The reaction mixture was mixed uniformly, reacted in dark for 6 min and measured at 734 nm for the absorbance A1, where a well containing the sample and 160 μL of absolute ethanol was used as control; a well containing 40 μL of distilled water and 160 μL of the ABTS^+⋅ solution was used as blank group; and Vc was used as positive control.
as §2

[6] = Table 18 (starch sodium octenyl succinate series)
[7] = Table 19, one value beside each beverage (nanoparticle powder 0.2-1.0%)
[8] = Table 21, one value beside each test number
[9] = verification experiment, mean of three repeats
[10] = verification experiment, single repeats 1-3

| Precipitation rate after centrifugation (%) [1] | absorbance of curcumin solution at 425 nm over time ([2]; Zn^2+ concentration 0.36 g/L) | Coefficient of absorbanee stability [3] | SMILES | absorbance of curcumin solution at 425 nm over time ([2]; Zn^2+ concentration 0.3 g/L) | DPPH · scavenging rate (%) Vc ([4]; Table 16 (CMC-Na series)) | DPPH · scavenging rate (%) Vc ([4]; Table 17 (xanthan gum series)) | DPPH · scavenging rate (%) Vc [4, 6] | Rate of DPPH · radical clearance (%) Vc [4, 7] | DPPH · scavenging rate (%) Vc [4, 8] | DPPH · scavenging rate (%) Vc [4, 9] | DPPH · scavenging rate (%) Vc [4, 10] | ABTS^+ · scavenging rate (%) Vc ([5]; Table 16 (CMC-Na series)) | ABTS^+ · scavenging rate (%) Vc ([5]; Table 17 (xanthan gum series)) | ABTS^+ · scavenging rate (%) Vc [5, 6] | Rate of ABTS^+ · radical clearance (%) Vc [5, 7] | ABTS^+ · scavenging rate (%) Vc [5, 8] | ABTS^+ · scavenging rate (%) Vc [5, 9] | ABTS^+ · scavenging rate (%) Vc [5, 10] |
| --- | --- | --- | --- | --- | --- | --- | --- | --- | --- | --- | --- | --- | --- | --- | --- | --- | --- | --- |
| 0.550 ± 0.100% | declining tendency | 0.286 ± 0.180 | COc1cc(/C=C/C(=O)CC(=O)/C=C/c2ccc(O)c(OC)c2)ccc1O [Pure curcumin, Curcumin] | smallest slope and relatively stable absorbance |  |  |  |  |  |  |  |  |  |  |  |  |  |  |
|  |  |  | O=C1O[C@H]([C@@H](O)CO)C(O)=C1O [Vc, ascorbic acid] |  | 92.51% | 92.51% | 92.51% | 93.15% and 93.62% and 93.67% and 91.72% and 92.51% | 95.72% and 93.44% and 94.65% | 94.5 ± 0.00% | 95.59% and 94.59% | 90.38% | 90.38% | 90.38% | 92.44% and 93.69% and 94.53% and 88.12% and 90.38% | 96.13% and 92.88% and 95.10% | 95.34 ± 0.00% | 95.34% |
